How the values were obtained:
Male Wistar rats = test: Chronic Mild Stress Model of Depression (CMS), sucrose intake
Excerpt: CMS uses mild stressors, such as food and water deprivation, small temperature changes, changes of cage mates, etc. Over a period of weeks of exposure to the mild stressors, the animals gradually reduce their consumption of a highly preferred sucrose solution which persists (in untreated animals) for several weeks following the cessation of stress.
Male Wistar rats were brought into the laboratory two months before the start of the experiment at which time they weighed aprroximately 300 grams. Except as described below, the animals were singly housed, with food an eater freely available, and maintained on a 12 hour light/dark cycle (lights on at 8 AM) at a temperature of 22±° C.
The animals were first trained to consume a 1% sucrose solution; training consisted of eight 1 hour baseline tests in which sucrose was presented, in the home cage, following 14 hours food and water deprivation; intake was measured by weighing pre-weighed bottles containing the sucrose solution at the end of the test. Subsequently, sucrose consumption was monitored, under similar conditions, at weekly intervals throughout the whole experiment.
On the basis of their sucrose intakes in the final baseline test, the animals were divided into two matched groups. One group of animals was subjected to a chronic mild stress procedure for a period of 9 consecutive weeks. Each week of stress regime consisted of: two periods of food or water deprivation (12 and 14 hour), two periods of 45 degree cage tilt (12 and 14 h), two periods of intermittent overnight illumination (lights on and off every 2 hours), two 14 hour periods of soled cage (200 ml water in sawdust bedding), two 14 hour periods of paired housing, two 14 hour periods of low intensity stroboscopic illumination (150 flashes/min). Stressors were applied continuously throughout the day and night, and scheduled randomly. […] They were deprived of food and water for the 14 hours preceding each sucrose test, but otherwise food and water were freely available in the home cage. […] All drug injections were in a volume of 1 ml/kg body weight. Drugs were administered at 10 AM and sucrose tests were carried out 24 hours following the last drug treatment. After five weeks, the treatments were terminated and after one week of withdrawal a final sucrose test was carried out. Stress was continued throughout the period of treatment and withdrawal.
Results were analyzed by multiple analysis of variance, followed by Fisher's LSD test for post hoc comparisons of means.

α-1 receptor = test: affinity for the α-1 receptor in in vitro models; format: binding
D2 (dopamine) receptor = D2 (dopamine) receptor (Homo sapiens, UniProt P14416); test: affinity for the D2 (dopamine) receptor in in vitro models; format: binding
[1] = system: cholinergic M1/M2 receptors; test: affinity for the cholinergic M1/M2 receptors; format: binding
Excerpt: It is orally active, non-toxic at therapeutic doses and potent. It is also capable of being sealed-up for commercial synthesis. Additionally, neurochemical studies indicate that there is a serotonin/dopamine interaction following chronic administration of this compound as described in Life Sciences 56(25): 2209-2222 (1995), incorporated herein by reference. The combination of the foregoing characteristics produces a unique compound for treating patients having either Depressive Disorders of Bipolar Disorders.

D1 (dopamine) receptor = D1 (dopamine) receptor (Homo sapiens, UniProt P21728); test: affinity for the D1 (dopamine) receptor in in vitro models; format: binding
Chain of D1 (dopamine) receptor (P21728 whole entry): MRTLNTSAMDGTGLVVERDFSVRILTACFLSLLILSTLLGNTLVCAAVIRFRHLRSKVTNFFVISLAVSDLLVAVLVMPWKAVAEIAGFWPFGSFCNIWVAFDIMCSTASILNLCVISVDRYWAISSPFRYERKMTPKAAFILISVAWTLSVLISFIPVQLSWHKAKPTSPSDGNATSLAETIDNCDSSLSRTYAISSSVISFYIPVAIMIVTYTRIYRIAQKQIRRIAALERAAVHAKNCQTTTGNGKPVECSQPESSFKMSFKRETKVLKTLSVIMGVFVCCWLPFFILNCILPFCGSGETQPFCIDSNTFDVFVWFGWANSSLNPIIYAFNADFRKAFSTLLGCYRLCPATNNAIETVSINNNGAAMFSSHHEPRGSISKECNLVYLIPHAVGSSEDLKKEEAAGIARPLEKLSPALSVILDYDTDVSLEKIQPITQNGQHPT

Chain of D2 (dopamine) receptor (P14416 whole entry): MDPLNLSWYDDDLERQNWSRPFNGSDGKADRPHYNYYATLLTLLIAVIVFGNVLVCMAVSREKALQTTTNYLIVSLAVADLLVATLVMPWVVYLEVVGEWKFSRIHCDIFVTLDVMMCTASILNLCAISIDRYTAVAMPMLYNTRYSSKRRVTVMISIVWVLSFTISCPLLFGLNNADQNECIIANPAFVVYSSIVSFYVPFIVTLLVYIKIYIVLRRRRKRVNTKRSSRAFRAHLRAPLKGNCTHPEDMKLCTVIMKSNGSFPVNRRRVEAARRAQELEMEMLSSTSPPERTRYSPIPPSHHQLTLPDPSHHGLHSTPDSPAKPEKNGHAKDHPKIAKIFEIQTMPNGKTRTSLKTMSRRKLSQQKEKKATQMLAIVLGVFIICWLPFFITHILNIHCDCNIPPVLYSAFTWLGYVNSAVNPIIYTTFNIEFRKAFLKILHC

Row | SMILES | effect on sucrose intake in control animals (Male Wistar rats; control (unstressed) rats, 10 mg/kg ip daily, five weeks) | weeks of treatment after which sucrose intake was significantly increased from Week 0 scores (Male Wistar rats; stressed rats, 10 mg/kg ip daily) | sucrose intake after five weeks of treatment compared with controls (Male Wistar rats; stressed rats, 10 mg/kg ip daily, Week 5) | effect on sucrose intake in stressed animals (Male Wistar rats; stressed rats, 10 mg/kg ip daily, five weeks) | sucrose intake one week after withdrawal from the drug (Male Wistar rats; stressed rats, 10 mg/kg ip, one week after withdrawal) | affinity for the α-1 receptor (α-1 receptor) | affinity for the D2 (dopamine) receptor (D2 (dopamine) receptor) | effect on sucrose intake in control animals (Male Wistar rats; control (unstressed) rats, 0.002, 0.02 and 0.2 mg/kg orally daily, five weeks) | sucrose intakes one week after withdrawal from the treatment (Male Wistar rats; control and stressed rats, 0.002, 0.02 and 0.2 mg/kg orally, one week after withdrawal) | weeks of treatment after which sucrose intake was significantly increased from initial scores (Week 0) (Male Wistar rats; stressed rats, 0.02 mg/kg orally daily) | amount of sucrose solution drunk at the end of treatment period (Week 5) (Male Wistar rats; stressed rats, 0.02 mg/kg orally daily, Week 5) | weeks of treatment after which sucrose intake was significantly increased from initial scores (Week 0) (Male Wistar rats; stressed rats, 0.2 mg/kg orally daily) | amount of sucrose solution drunk at the end of treatment period (Week 5) (Male Wistar rats; stressed rats, 0.2 mg/kg orally daily, Week 5) | effect on sucrose intake in stressed animals (Male Wistar rats; stressed rats, 0.002, 0.02 and 0.2 mg/kg orally daily, five weeks (overall Treatment effect)) | effect on sucrose intake throughout the whole treatment period (Male Wistar rats; stressed rats, lowest dose 0.002 mg/kg orally daily, five weeks) | affinity for the cholinergic M1/M2 receptors [1] | affinity for the D1 (dopamine) receptor (D1 (dopamine) receptor)
1 | CN(C)CCCN1c2ccccc2CCc2ccccc21 [Imipramine, reference compound] | no significant effect | four | no significant differences between drug-treated stressed animals and drug- and saline-treated controls | gradual increase of sucrose intake | maintained at similar level |  |  |  |  |  |  |  |  |  |  |  | 
2 | COc1cccc(C(O)C2CCN(CCc3ccc(F)cc3)CC2)c1OC (stereo not drawn) [THE COMPOUND, (+)-α-(2,3-dimethoxyphenyl)-1-[2-(4-fluorophenyl)ethyl]-4-piperidinemethanol] |  |  |  |  |  | greater than 100 nM | greater than 100 nM | no significant effect | not significantly changed | two | comparable to that of vehicle-treated controls and significantly higher than that of vehicle-treated stressed animals | three | comparable to that of vehicle-treated controls and significantly higher than that of vehicle-treated stressed animals | gradually reversed the CMS-induced deficit in sucrose intake | no significant effect | little affinity | greater than 100 nM
